According to US20140295512A1, “Ketol-Acid Reductoisomerases With Improved Performance Properties” (CALIFORNIA INSTITUTE OF TECHNOLOGY, priority 2011, published 2014):
Values joined by “and” are separate entries in the source; they are usually repeats but may differ in a detail not shown here. Identical values can stand only once.

What was measured:
[1] = target: Ec_ilvC^P2D1-A1; experiment: NKR assay in microtiter plates to measure inhibition by DHIV; type: biochemical, E. coli; settings: 200 μM NADH, varied (S)-2-acetolactate, pH 7; read-out: K of Ec_ilvC^P2D1-A1 for DHIV (inhibition constant)
Procedure: NKR activity was assayed kinetically by monitoring the decrease in NADH concentration by measuring the absorbance at 340 nm. A reaction buffer was prepared containing 250 mM potassium phosphate pH 7, 1 mM DTT, 200 μM NADH, 2.5 mM (S)-2-acetolactate, and 10 mM MgCl2. Ten μL purified enzyme were placed into a microtiter plate. The reaction was initiated by addition of 90 μL of the reaction buffer. The kinetics with respect to substrate conversion in presence of the inhibitor were determined by varying the substrate concentration (5.1, 2.55, 1.275, 0.638, 0.319, 0.159, and 0.0799 mM), while keeping the cofactor concentration constant at 200 μM. The inhibition constant was measured by repeating these measurements with different amounts of inhibitor (0, 0.07, 0.13, 0.26, 0.51, and 1.07 mM, final concentrations).

[2] = target: E. coli KARI (Escherichia coli, UniProt P05793); experiment: KARI assay in 100-μL scale to measure IC50 in presence of R-DHIV; type: biochemical; settings: for Ki: calculated via Cheng-Prusoff equation
Sequence of E. coli KARI (P05793 whole entry): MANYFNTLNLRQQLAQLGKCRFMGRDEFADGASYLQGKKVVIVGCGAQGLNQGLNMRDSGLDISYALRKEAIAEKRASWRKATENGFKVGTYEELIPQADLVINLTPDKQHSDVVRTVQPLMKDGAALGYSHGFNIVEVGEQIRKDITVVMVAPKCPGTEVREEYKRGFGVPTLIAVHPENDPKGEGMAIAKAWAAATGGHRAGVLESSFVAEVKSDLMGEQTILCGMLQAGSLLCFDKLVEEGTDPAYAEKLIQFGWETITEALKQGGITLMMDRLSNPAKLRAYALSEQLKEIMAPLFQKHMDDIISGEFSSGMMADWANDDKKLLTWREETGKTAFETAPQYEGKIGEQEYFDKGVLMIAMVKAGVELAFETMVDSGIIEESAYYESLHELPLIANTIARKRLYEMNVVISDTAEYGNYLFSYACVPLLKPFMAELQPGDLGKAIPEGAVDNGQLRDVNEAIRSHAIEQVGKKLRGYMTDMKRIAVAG
Procedure: (§1) Assay buffers were prepared containing 250 mM potassium phosphate pH 7.0, 1 mM DTT, 10 mM MgCl2, 2.5 mM acetolactate, 200 μM NADPH, and increasing concentrations of R-DHIV (0-85.5 mM (final concentrations). Ten μL purified enzyme were placed into a flat-bottom assay plate (Evergreen Scientific). The reactions were initiated by addition of 90 μL assay buffer. The change in absorbance at 340 nm was monitored over 1 min in a plate reader (TECAN).

[3] = target: L. lactis KARI (Lactococcus lactis subsp. lactis, UniProt Q02138); experiment: as above; type: biochemical
Sequence of L. lactis KARI (Q02138 whole entry): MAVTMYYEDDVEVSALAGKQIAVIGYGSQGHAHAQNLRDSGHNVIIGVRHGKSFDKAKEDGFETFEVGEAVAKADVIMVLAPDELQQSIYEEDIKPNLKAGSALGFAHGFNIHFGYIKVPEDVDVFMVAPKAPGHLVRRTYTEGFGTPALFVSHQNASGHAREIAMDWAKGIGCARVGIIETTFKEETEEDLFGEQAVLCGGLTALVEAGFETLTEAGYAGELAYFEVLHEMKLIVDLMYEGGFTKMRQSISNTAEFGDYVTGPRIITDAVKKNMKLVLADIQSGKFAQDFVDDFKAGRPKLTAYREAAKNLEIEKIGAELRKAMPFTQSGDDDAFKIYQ
Procedure: as §1

[4] = target: S. exigua KARI (Slackia exigua, UniProt D0WGK0); experiment: as above; type: biochemical
Sequence of S. exigua KARI (D0WGK0 whole entry): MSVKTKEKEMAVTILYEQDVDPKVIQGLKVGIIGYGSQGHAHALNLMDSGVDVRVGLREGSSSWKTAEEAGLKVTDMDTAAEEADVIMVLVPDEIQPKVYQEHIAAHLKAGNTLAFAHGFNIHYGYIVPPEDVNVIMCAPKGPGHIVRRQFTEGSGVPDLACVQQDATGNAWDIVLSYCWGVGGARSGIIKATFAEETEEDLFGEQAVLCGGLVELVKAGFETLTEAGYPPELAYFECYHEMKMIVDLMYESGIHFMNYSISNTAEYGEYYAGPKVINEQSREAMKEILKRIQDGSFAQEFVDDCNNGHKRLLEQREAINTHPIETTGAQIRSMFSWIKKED
Procedure: as §1

[5] = 2.5 mM acetolactate, 200 μM NADPH, pH 7.0
[6] = calculated via Cheng-Prusoff equation

In the case of `CC(C)(O)C(O)C(=O)O` (centres unmarked) [DHIV, 2,3-dihydroxyisovalerate], the Ki [1] is reported as 45 µM and the Ki [2] is reported as 100 µM.
`CC(C)(O)[C@@H](O)C(=O)O` [R-DHIV] was tested, and the IC50 [2, 5] was 1000 µM and 1100 µM, the Ki [2] was 100 µM and the IC50 [3, 5] was 2500 ± 700 µM. The Ki [3, 6] was 1700 µM, the “IC50 on S. exigua KARI, times higher than IC50 of the E. coli KARI” value [4] was 27 fold and the “IC50 on S. exigua KARI, times higher than IC50 of the L. lactis KARI” value [4] was 10 fold. The “Ki on S. exigua KARI, times higher than Ki calculated for E. coli KARI” value [4] was 17 fold, the IC50 [4, 5] was 26700 µM and 27000 µM and the Ki [4, 6] was 1700 µM.
